Values of other authors, collected in patent US10325677B2, “Apparatus and computerized method for optimizing or generating a sigma profile for a molecule” (Texas Tech University System, priority 2014, dated 2019).

Details: published in the literature

SMILES: Cn1c(=O)c2c(ncn2C)n(C)c1=O [Caffeine, caffeine]
- NRTL-SAC Conceptual Segment Number X: −0.105
- NRTL-SAC Conceptual Segment Number Y^+: 1.211
- NRTL-SAC Conceptual Segment Number Y^−: 0.282
- NRTL-SAC Conceptual Segment Number Z: 0.211
